Eight molecules from paper PMC3891991, “Synthesis and molecular modeling of six novel monastrol analogues: evaluation of cytotoxicity and kinesin inhibitory activity against HeLa cell line” (DARU Journal of Pharmaceutical Sciences, 2013) can be followed below.

Converted amounts (≈) assume the structure as drawn.

The target in data set [1] is T1, kinesin heavy chain Motor (Homo sapiens, UniProt P33176).
T1 construct: kinesin heavy chain Motor (Cytoskeleton, Cat # KR01-A); purchased Cytoskeleton KR01-A
T1 sequence (P33176 8-325 limits assumed): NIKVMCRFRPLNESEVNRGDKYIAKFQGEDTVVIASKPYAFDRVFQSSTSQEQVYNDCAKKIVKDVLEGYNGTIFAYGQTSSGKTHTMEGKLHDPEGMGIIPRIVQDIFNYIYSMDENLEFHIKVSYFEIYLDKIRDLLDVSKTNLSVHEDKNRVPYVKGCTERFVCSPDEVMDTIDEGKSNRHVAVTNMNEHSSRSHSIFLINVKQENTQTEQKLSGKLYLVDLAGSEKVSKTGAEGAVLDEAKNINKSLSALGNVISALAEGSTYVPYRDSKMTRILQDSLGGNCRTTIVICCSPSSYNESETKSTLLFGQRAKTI
The experiment in a line: Kinesin ATPase activity assay (ELIPA kit, inorganic phosphate). As to conditions: ATPase activity of kinesin, n = 2, read-out: IC 50 (μg/ml) for Kinesin inhibition (converted). The class given is biochemical.

In a further data set the test system is HeLa cell line. The experiment in a line: MTT cytotoxicity assay on HeLa cells. As to conditions: Homo sapiens, 24 h, read-out: IC 50 (μg/ml) ± SD on HeLa cell line.

Protocol for HeLa cell line: HeLa cell line was obtained from National Cell Bank of Iran, Pasteur Institute of Iran.
Cytotoxic effects of synthesized compounds were determined using the MTT [3-(4,5-dimethylthiazol-2-yl)-2,5-diphenyltetrazolium bromide] assay [18-20]. Briefly, 5000 HeLa cells/well were seeded in a 96-well plate and cultured overnight. Different concentrations of synthesized compounds were added to each well. […] Then, the medium was removed, and the purple formazan crystals were dissolved in 150 μl dimethylsulfoxide (Merck, Germany). Absorbance was measured at 545 nm (630 nm as a reference) in Synergy H4 Hybrid Multi-Mode Microplate Reader (Biotek, Model: H4MLFPTAD). IC50 was calculated using CalcuSyn (BioSoft).
HeLa cells were incubated with different concentrations of newly synthesized compounds for 24 h and cytotoxicities were evaluated using MTT assay.

Molecule `CSc1ncc(C2NC(=O)NC3=C2C(=O)CC(C)(C)C3)n1Cc1ccccc1` (stereo not drawn) [Compound 4a, 4-[1-benzyl-2-(methylthio)-1H-imidazol-5-yl)-3,4,7,8-tetrahydro-7,7 dimethyl-quinazoline-2,5-(1H,6H)-diones] registered a melting point of 169 °C. Moreover, in data set [1], the IC50 was 182 µM. In the data set with HeLa cell line, the IC50 was 210 ± 21 µg/mL (≈ 530 µM).

As to `CSc1ncc(C2NC(=S)NC3=C2C(=O)CC(C)(C)C3)n1Cc1ccccc1` (stereo not drawn) [Compound 4b, 4-[1-benzyl-2-(methylthio)-1H-imidazol-5-yl)-1,2,3,4,7,8-hexahydro-7,7 dimethyl-2-thio oxoquinazoline-5-(6H)-one], the melting point amounted to 157 °C. Moreover, in data set [1], the IC50 was 187 µM. Further, in the data set with HeLa cell line, the IC50 worked out at 301 ± 22 µg/mL (≈ 730 µM).

Consider `CSc1ncc(C2NC(=O)NC3=C2C(=O)CC(C)(C)C3)n1Cc1ccccc1Cl` (stereo not drawn) [Compound 4c, 4-[1-(2-chlorobenzyl)-2-(methylthio)-1H-imidazol-5-yl]-3,4,7,8-tetrahydro-7,7 dimethyl quinazoline-2,5-(1H,6H)-diones], for which the melting point worked out at 149 °C. In addition, the IC50 in data set [1] is 183 µM. Also, in the data set with HeLa cell line, the IC50 stood at 98 ± 19 µg/mL (≈ 227 µM).

Consider `CSc1ncc(C2NC(=S)NC3=C2C(=O)CC(C)(C)C3)n1Cc1ccccc1Cl` (stereo not drawn) [Compound 4d, 4-[1-(2-chlorobenyl)-2-methylthio-1H-imidazol-5-yl]-1,2,3,4,7,8-hexahydro-7,7 dimethyl-2-thio oxoquinazoline-5-(6H)-one], for which the melting point was 142 °C.

Regarding `CSc1ncc(C2NC(=O)NC3=C2C(=O)CC(C)(C)C3)n1Cc1ccc(F)cc1` (stereo not drawn) [Compound 4e, 4-[1-(4-fluorobenzyl)-2-(methylthio)-1H-imidazol-5-yl]-3,4,7,8 – tetrahydro-7,7 dimethyl quinazoline-2,5-(1H,6H)-diones], the melting point worked out at 82 °C. Also, in data set [1], the IC50 is 232 µM. Further, the IC50 in the data set with HeLa cell line amounted to 110 ± 28 µg/mL (≈ 265 µM).

Turning to `CSc1ncc(C2NC(=S)NC3=C2C(=O)CC(C)(C)C3)n1Cc1ccc(F)cc1` (stereo not drawn) [Compound 4f, 4-[1-(4-fluorobenzyl)-2-methylthio-1H-imidazol-5-yl]-1,2,3,4,7,8-hexahydro-7,7-dimethyl-2-thiooxoquinazoline-5-(6H)-one], the melting point worked out at 149 °C. Further, in data set [1], the IC50 was 460 µM. Moreover, in the data set with HeLa cell line, the IC50 was 339 ± 23 µg/mL (≈ 787 µM).

Consider `CC(=O)O[C@H]1C(=O)[C@@]2(C)[C@H]([C@H](OC(=O)c3ccccc3)[C@]3(O)C[C@H](OC(=O)[C@H](O)[C@@H](NC(=O)c4ccccc4)c4ccccc4)C(C)=C1C3(C)C)[C@]1(OC(C)=O)CO[C@@H]1C[C@@H]2O` [Taxol, reference compound], for which the IC50 in data set [1] is 8.2 µM.

As to `CC1(C)CC(=O)C2=C(C1)NC(=S)NC2c1cccc(O)c1` (stereo not drawn) [dimethylenastrone, dimethylenastron, reference compound], in the data set on HeLa cell line, the IC50 is 338 ± 26 µg/mL (≈ 1120 µM).

One may read the melting point as the temperature, or range, at which the solid turns liquid.
